Assay results from US11596623B2, “Methods for treating virus infection or proliferation” (HOWARD UNIVERSITY, priority 2018, dated 2023).
“Also recorded” adds a separate entry of the source.

Tests used:
EV-D68 = EV-D68 VP1 western assay in HEp-2 cells; format: cell-based; settings: 48 h; for EV-D68 proliferation / major structural protein VP1: HEp-2 cells, western
Protocol: HEp-2 cells were grown to 80-90% confluency in Dulbecco's Modified Eagle's medium (DMEM) supplemented with 10% fetal calf serum (FCS) and 1% penicillin-streptomycin (PS) and fungicide. The virus and the indicated concentration of compounds were added and incubated for 48 h. After washing with PBS, the cell lysates were collected and were run in a Biorad XT-Criterion gel and transferred to a PVDF membrane. The membrane was blotted with an antibody directed against the EVD68 major structural protein VP1 purchased from Genetex (Irvine, Calif.). An anti-mouse IgG-HRP secondary antibody and Biorad's Western ECL substrate-Clarity was used to label the bands and the image was obtained in a Biorad Gel doc system. […] The tubulin antibody was used as the loading control.
HEp-2 cells were grown to 80-90% confluency in Dulbecco's Modified Eagle's medium (DMEM) supplemented with 10% fetal calf serum (PCS) and 1% penicillin-streptomycin (PS) and 1% fungicide. The EV-D68 virus and the indicated concentration of compounds were added and incubated for 48 h. After washing with PBS, the cell lysates were collected and were run in a Biorad Stain free TGX gel and were transferred to a PVDF membrane. The membrane was blotted with an antibody directed against the EV-D68 major structural protein VP1 purchased from Genetex (Irvine, Calif.). An antimouse IgG-HRP secondary antibody and Biorad's Western ECL substrate-Clarity was used to label the bands and the image was obtained in a Biorad Gel doc system. […] The non-specific band high above the VP1 band indicate that all virus treated lanes were loaded with equal amount of lysates. The identity of the EV-D68 VP1 protein is confirmed by the lack of the 33 kD band in the no virus lane.
HEp-2 cells were grown to 80-90% confluency in Dulbecco's Modified Eagle's medium (DMEM) supplemented with 10% fetal calf serum FCS and 1% penicillin-streptomycin (PS) and fungicide. The representative virus (EV-D68) and the indicated concentration of compounds were added and incubated for 48 h. […]

HSV-1 = HSV-1 viral protein western blot in HEp-2 cells; format: cell-based; settings: pre-treated 24 hours at 100 μM; 24 h after infection
From the text: Panel A of FIG. 3 depicts time and concentration dependent virus protein expression to deduce an optimum drug treatment regimen. […] Tubulin expression was used as the loading control for the blots.
HEp-2 cells (ATCC) were used for the infection of HSV-1. The cells were maintained in Dulbecco's Modified Eagle's medium (DMEM) supplemented with 10% fetal calf serum (FCS) and 1% penicillin-streptomycin (PS). Wild-type HSV-1 17 was obtained from R. D. Everett and used previously
Proteins were separated by SDS-PAGE (25 μg loaded in each lane), transferred to nitrocellulose membranes (Amersham Inc., Piscataway, N.J., USA), and blocked with 5% nonfat milk for 60 min at room temperature. Membranes were incubated overnight at 4° C. with primary antibody, followed by incubation with a horseradish peroxidase-coupled secondary antibody and detection with enhanced chemiluminescence (Pierce, Rockford, Ill., USA), according to standard methods. Membranes were stripped with stripping buffer (100 mM 2-mercaptoethanol, 2% SDS, 62.5 mM Tris-HCl, pH 6.8), washed with PBS-0.1% Tween-20, and used to detect additional proteins. For Arabidopsis lysates one-week old seedlings were treated with 10 uM of ABA in the presence/absence of the inhibitor compounds for 12 hours in a growth chamber (overnight) at 22° C. mostly in the dark. […]

For `Nn1c(S)nnc1-c1cc(Cl)cc(Cl)c1` [SD29-14], the “EV-D68 proliferation / major structural protein VP1” value (EV-D68) was “inhibits EV-D68 proliferation in a dose dependent way; also recorded: effectively inhibited the viral major structural protein VP1”, the “EV-D68 proliferation / major structural protein VP1” value (EV-D68; listed as SD 29-14) was “inhibits proliferation of a representative virus (EV-D68), in a dose dependent way” and the “efficacy in inhibiting EV-D68 compared with SD29 and SD29-12” value (EV-D68; VP1 western) was “better efficacy”.
With `Nn1c(S)nnc1-c1ccc(F)cc1` [SD-29] the “HSV-1 protein production (ICP0, ICP8, gD)” value (HSV-1) was “repressed HSV-1 protein production”.
